Laboratory results as given in patent US9210936B2, “Biocidal compositions and methods of use” (Dow Global Technologies LLC, priority 2011, dated 2015).

What was measured:
Format in all cases: cell-based
[1] = test system: Desulfovibrio longus ATCC 51456; test: Biocidal efficacy (MBC, minimum tested biocide concentration for complete bacterial kill) against anaerobic bacteria in salt solution; settings: 35° C., 2 hours, 10^6 to 10^7 CFU/mL; for Concentration (ppm active) for anaerobic bacteria kill, DTEA: DTEA part of the MBC for complete bacterial kill; for Concentration (ppm active) for anaerobic bacteria kill, THPS: THPS part of the MBC for complete bacterial kill
Method: The synergy indexes reported in the following examples are calculated using the following equation: Synergy Index=Ca/CA+Cb/CB
Ca: Concentration of biocide A required to achieve a certain level of bacterial kill when used in combination with B
CA: Concentration of biocide A required to achieve a certain level of bacterial kill when used alone
Cb: Concentration of biocide B required to achieve a certain level of bacterial kill when used in combination with A
CB: Concentration of biocide B required to achieve a certain level of bacterial kill when used alone.
A synergy index (SI) of 1 indicates additivity, a synergy index of less than 1 indicates synergy, and a synergy index greater than 1 indicates antagonism.
Inside an anaerobic chamber (Bactron anaerobic chamber), a deoxygenated sterile salt solution (3.1183 g of NaCl, 1.3082 mg of NaHCO3, 47.70 mg of KCl, 72.00 mg of CaCl2, 54.49 mg of MgSO4, 172.28 mg of Na2SO4, 43.92 mg of Na2CO3 in 1 L water) is inoculated with Desulfovibrio longus ATCC 51456 to a final bacterial concentration of 10^6 to 10^7 CFU/mL. […] After the treated cell suspensions are incubated at 35° C. for 2 hours, the biocidal efficacy is determined by minimum tested biocide concentration for complete bacterial kill in the aliquots (MBC).

[2] = test system: Biofilms of Desulfovibrio longus ATCC 51456 (sessile bacteria); test: Sessile bacteria kill in biofilms grown in Calgary Biofilm Device; settings: 72 hours biofilm, 2 hours treatment, anaerobic
Method: (§1) Modified Baar's Medium (ATCC #1249 Broth) is used as culture medium and the medium is changed after 48 hrs of incubation.

[3] = test system: Biofilms of Desulfovibrio longus ATCC 51456; test: Biofilm removal, remaining biofilm by crystal violet staining; settings: 2 hours treatment, optical density of biofilm captured crystal violet at 580 nm
Method: as §1
The biofilm is fixed with 99% methanol and, after air drying, the pegs are stained with 2% (w/v) crystal violet and washed with tap water. The pegs are then air dried and the crystal violet bound to the biofilm is extracted with 33% glacial acetic acid. The total remaining biofilm is determined by the optical density (OD) of the extracted solution at 580 nm.

Compound | Concentration (ppm active) for anaerobic bacteria kill, DTEA [1] [ppm active] | Concentration (ppm active) for anaerobic bacteria kill, THPS [1] [ppm active] | Concentration (ppm active) for 3 log10 bacterial reduction [2] [ppm active] | Remaining biofilm, OD580 ([3]; 50 ppm active) | Remaining biofilm, OD580 ([3]; 100 ppm active)
CCCCCCCCCCSCCN [DTEA, 2-(decylthio)ethanamine] | 20.00 | 0.00 |  |  | 
tetrakis(hydroxymethyl)phosphonium sulfate [THPS] | 0.00 | 19.75 | 50 | 0.57 | 0.68
